{
  "source": "paper PMC10671431",
  "about": "“New Derivatives of N-Hydroxybutanamide: Preparation, MMP Inhibition, Cytotoxicity, and Antitumor Activity” (International Journal of Molecular Sciences, 2023)",
  "origin": "cited, not measured here",
  "key": {"[1]": {"system": "pancreatic adenocarcinoma HPAC cells", "parameters": "method as in PMID 9224409", "conditions": "4000 ng/mL (8.37 μM), 24 h of exposure; cited from earlier work"}, "[2]": {"system": "rat prostate cells derived from R3327-MatLyLu Dunning tumor", "parameters": "method as in PMID 10754522", "conditions": "4000 ng/mL (8.37 μM), 48 h of exposure; cited from earlier work"}, "[3]": {"system": "pancreatic carcinoma cells CD18", "parameters": "method as in PMID 24022491", "conditions": "5 μM, 24 h of exposure; cited from earlier work"}, "[4]": {"system": "pancreatic carcinoma cells MiaPaCa2", "parameters": "method as in PMID 24022491", "conditions": "5 μM, 24 h of exposure; cited from earlier work"}, "human glioma U-251 cells": {"system": "human glioma U-251 cells", "parameters": "method as in PMID 10048980", "conditions": "10 μM, 96 h of exposure; cited from earlier work"}, "[5]": {"system": "pancreatic adenocarcinoma cells AsPC1", "parameters": "method as in PMID 10767785", "conditions": "72 h of exposure, cited from earlier work"}, "[6]": {"system": "pancreatic adenocarcinoma cells Capan1", "parameters": "method as in PMID 10767785", "conditions": "72 h of exposure, cited from earlier work"}, "[7]": {"system": "Shionogi hormone-responsive breast carcinoma cells", "parameters": "method as in PMID 8347186", "conditions": "156 μg/mL (326.61 μM), 96 h of exposure; cited from earlier work"}, "B16-BL6 melanoma": {"system": "B16-BL6 melanoma", "parameters": "method as in PMID 8050828", "conditions": "mice with B16-BL6 melanoma; cited from earlier work"}, "[8]": {"system": "WM266-4 melanoma cells in nude mice", "parameters": "method as in PMID 27687955", "conditions": "cited from earlier work"}, "[9]": {"system": "human malignant glioma cells U-87", "parameters": "method as in PMID 10213221", "conditions": "cited from earlier work"}, "[10]": {"system": "human MV522 lung cancer cells in nude mice", "parameters": "method as in PMID 10430098", "conditions": "cited from earlier work"}, "Lewis lung carcinoma": {"system": "Lewis lung carcinoma", "parameters": "method as in PMID 9247252", "conditions": "cited from earlier work"}, "[11]": {"system": "hormone-sensitive prostate cancer G subline of Dunning tumor", "parameters": "method as in PMID 16096433", "conditions": "rats; cited from earlier work"}, "MMP-1": {"system": "MMP-1", "parameters": "method as in PMID 23541335, PMID 16538215", "conditions": "cited from earlier work"}, "MMP-8": {"system": "MMP-8", "parameters": "method as in PMID 23541335, PMID 16538215", "conditions": "cited from earlier work"}, "MMP-13": {"system": "MMP-13", "parameters": "method as in PMID 23541335, PMID 16538215", "conditions": "cited from earlier work"}, "[12]": {"conditions": "concentrations up to 10,000 ng/mL (20.94 μM)"}, "[13]": {"conditions": "higher concentrations (up to 100,000 ng/mL or 209.36 μM)"}},
  "note": "Read-outs that look alike come from different tables or passages of the source.",
  "data": [
    {"smiles": "CNC(=O)[C@H](Cc1ccccc1)NC(=O)[C@H](CC(C)C)[C@H](CSc1cccs1)C(=O)NO", "note": "[Batimastat]", "values": [
      {"measurement": "inhibition of cell growth", "setting": "[1]", "result": "inhibit the growth"},
      {"measurement": "inhibition of cell growth", "setting": "[2]", "result": "inhibit the growth"},
      {"measurement": "toxicity to cells", "setting": "[3]", "result": "toxic"},
      {"measurement": "toxicity to cells", "setting": "[4]", "result": "toxic"},
      {"measurement": "reduction in cell viability", "setting": "human glioma U-251 cells", "result": "20–40%"},
      {"measurement": "toxicity to cells", "setting": "[5]; [12]", "result": "no toxicity"},
      {"measurement": "toxicity to cells", "setting": "[5]; [13]", "result": "only mild toxicity"},
      {"measurement": "toxicity to cells", "setting": "[6]; [12]", "result": "no toxicity"},
      {"measurement": "toxicity to cells", "setting": "[6]; [13]", "result": "only mild toxicity"},
      {"measurement": "effect on cell density", "setting": "[7]", "result": "no apparent effect"},
      {"measurement": "tumor growth", "setting": "B16-BL6 melanoma", "result": "inhibit tumor growth"}
    ]},
    {"smiles": "Nc1ccc(Oc2ccc(S(=O)(=O)CC3CS3)cc2)cc1", "note": "(stereo not shown) [ND-322]", "values": [
      {"measurement": "tumor growth", "setting": "[8]", "result": "inhibited the growth"}
    ]},
    {"smiles": "CC1(C)SCCN(S(=O)(=O)c2ccc(Oc3ccncc3)cc2)[C@H]1C(=O)NO", "note": "[Prinomastat]", "values": [
      {"measurement": "concentrations toxic to cells", "setting": "[9]", "result": "above 100 μM"},
      {"measurement": "tumor growth", "setting": "[10]", "result": "inhibit the growth"},
      {"measurement": "tumor growth", "setting": "Lewis lung carcinoma", "result": "inhibit the growth"}
    ]},
    {"smiles": "O=C1NC(=O)C(c2ccc(-c3ccccc3)cc2)(N2CCN(c3ccc([N+](=O)[O-])cc3)CC2)C(=O)N1", "note": "[RO 28-2653]", "values": [
      {"measurement": "tumor growth", "setting": "[11]", "result": "inhibit the growth"}
    ]},
    {"smiles": "O=C(C[C@H](CSc1ccccc1)C(=O)O)c1ccc(-c2ccc(Cl)cc2)cc1", "note": "[tanomastat]", "values": [
      {"measurement": "inhibition of MMP-1", "setting": "MMP-1", "result": "does not inhibit"},
      {"measurement": "inhibition of MMP-8", "setting": "MMP-8", "result": "does not inhibit"},
      {"measurement": "inhibition of MMP-13", "setting": "MMP-13", "result": "does not inhibit"}
    ]}
  ]
}
